Test [1] concerns PE13 breast tumors. As to the kind of experiment: Microarray analysis of PE13 breast tumors treated with taxol or 59R1 plus taxol. Conditions: PE13, Taxol vs. control. In kind it is in vivo, mice. The protocol: In addition to investigating the effects of 59R1 in tumors and the effect on CSC frequency, gene changes were studied following 59R1 treatment in combination with taxol. The experiment was performed in PE13 breast tumors where a decrease in CSC frequency after treatment with 59R1 alone or 59R1 plus taxol treatment had previously been observed (and described herein). Microarray analysis was performed on tumors from the same experiment where limiting dilution analyses of PE13 were carried out for CSC quantification (FIG. 19). Animals bearing PE13 breast tumors were treated three weeks with 59R1 plus taxol, control and taxol prior to harvesting for microarray analysis. Mean differential expression values for taxol vs. control and 59R1 plus taxol vs. taxol treated animals (3 animals per group) were calculated.

Test [2] has as its system B51 breast tumors. As to the kind of experiment: Limiting dilution assay of cancer stem cell frequency, B51 breast tumors. It is filed as in vivo, NOD-SCID mice. To be noted: B51, paclitaxel. From the text: Limiting dilution assays (LDAs) can be used to assess the effect of a Notch-binding agent on solid tumor cancer stem cells and on the tumorigenicity of a tumor comprising the cancer stem cells. The assays can be sued to determine the frequency of cancer stem cells in tumors from animals treated with the Notch-binding agent or other agent and to compare that frequency to the frequency of cancer stem cells in tumors from control animals.
An LDA was used to assess the effect on the tumorigenicity of the B51 breast tumors that were treated with the combination of control antibody (1B711) plus paclitaxel (Taxol) or treated with the combination of 59R1 and paclitaxel, as described above in Example 7. In addition, the effect of treatment of B51 breast tumors with the control antibody alone or 59R1 alone was also determined by LDA. The doses of antibodies and paclitaxel and the schedule of dosing for the control antibody group and the 59R1 group were the same as described in Example 7, above for the other two treatment groups. After three doses of antibodies and/or paclitaxel, tumors were harvested, processed and dissociated into single cells. The human tumor cells were isolated from the xenograft tumor cells by incubation with biotinylated mouse antibodies (α-mouse CD45-biotin1:200 dilution and rat α-mouse H2 Kd-biotin1:100 dilution, BioLegend, San Diego, Calif.) on ice for 30 min, followed by addition of streptavidin-labeled magnetic beads and removal of the mouse cells with the aid of a magnet. The human cells in the suspension were harvested and counted.
A serial titration of cells (30, 90, 270, and 810 cells) from each of the four treatment groups was injected in a 1:1 (v/v) mixture of FACS buffer and Matrigel into a new set of NOD-SCID mice (n=10/group). Tumors were allowed to grow for 72 days. The percentage of mice with detectable tumors was determined in all groups. The cancer stem cell frequency was then calculated using L-Calc™ software (StemCell Technologies Inc.; downloadable from www.stemcell.com/search/default.asp).

SMILES strings stand for the structures.

In the case of `CC(=O)O[C@H]1C(=O)[C@@]2(C)[C@H]([C@H](OC(=O)c3ccccc3)[C@]3(O)C[C@H](OC(=O)[C@H](O)[C@@H](NC(=O)c4ccccc4)c4ccccc4)C(C)=C1C3(C)C)[C@]1(OC(C)=O)CO[C@@H]1C[C@@H]2O` [Taxol, paclitaxel, reference compound], in test [1], the “Fold BMPR1B” value is recorded as 10.2, the “Fold BNIP3” value is recorded as −2.1, the “Fold EGLN3” value is −21.1 and the “Fold HSPB6” value turned out to be 13.4. Further, in test [1], the “Fold ITGAM” value was 2.2, the “Fold LHX8” value stood at 4.6, the “Fold NDRG1” value is −9.0 and the “Fold RARRES1” value is listed as 6.4. For the same compound, in test [1], the “Fold RARRES3” value stood at 2.6, the “Fold RBP2” value is reported as 4.8 and the “Fold XAF1” value is 10.6. Besides, the “increase of frequency of cancer stem cells relative to the control” value in test [2] is on record as “more than two-fold”.

Values taken from patent US8226943B2, “Antibodies to notch receptors” (OncoMed Pharmaceuticals, Inc., priority 2008, dated 2012).
